The MIC is the least concentration at which growth counts as inhibited.

What all share (assay type): cell-based
In test [1] the test system is S. aureus RN4220 (pYH4-MRS). Kind of test: Mode of action: MIC with MRS over-production.
Protocol: The strain expresses high levels of MRS upon the addition of 0.01 μg/mL of anyhdrotetracycline.
For test [2], the system named is S. aureus, coagulase-negative staphylococci and S. pyogenes strains. Kind of test: Serial passage, whole panel of 19 isolates. To be noted: after 20 passages; observed with five of the 19 organisms tested. As for the experimental part:
MRSi compound 5 (acetate salt), mupirocin and MRSi compound 5/mupirocin 1:1 combination were tested for development of resistance following serial passage using 19 isolates, including S. aureus, coagulase-negative staphylococci and S. pyogenes strains.

In a further test the test system is E. faecalis. Kind of test: MIC against E. faecalis. To be noted: Enterococcus faecalis, Table 8.
The subject of a further test is E. faecium. Kind of test: MIC against E. faecium. As to conditions: Enterococcus faecium, ATCC33667. On the procedure: MRSi compound 5 alone and in combination with mupirocin was tested recent clinical isolates of E. faecalis (n=28) and E. faecium (n=23). Both the acetate salt and mupirocinate salts of MRSi compound 5 maintained potent activity against vancomycin-susceptible and—resistant enterococci (Tables 8, 9, and 10).

The mark [3] stands for this setting: S. aureus RN4220 (pYH4-MRS), +aTC (MRS over-expression).

Values after ≈ are worked out from the molar mass of the structure shown.

`C=C(F)c1sc(CNCCCNc2cc(=O)c3ccccc3[nH]2)c(C)c1Br` [MRSi Cmpd 5, N-(4-bromo-5-(1-fluorovinyl)-3-methylthiophen-2-ylmethyl)-N′-(1H-quinolin-4-one)propane-1,3-diamine]: in test [1] (+aTC vs −aTC, 0.01 μg/mL anhydrotetracycline), the “increase in MIC on over-expression of MRS” value turned out to be 8 fold. Moreover, the minimum inhibitory concentration (MIC) was determined as 1 mg/L (≈ 2.22 µM) in test [1] (setting [3]) and 0.12 mg/L (≈ 0.266 µM) in test [1] (S. aureus RN4220 (pYH4-MRS), −aTC (no anhydrotetracycline)). Also, in test [2], the “MICs of the most resistant isolates that could be selected” value was 16 µg/mL.
Regarding `CN[C@H](CC(C)C)C(=O)N[C@H]1C(=O)N[C@@H](CC(N)=O)C(=O)N[C@H]2C(=O)N[C@H]3C(=O)N[C@H](C(=O)N[C@H](C(=O)O)c4cc(O)cc(O)c4-c4cc3ccc4O)[C@H](O)c3ccc(c(Cl)c3)Oc3cc2cc(c3O[C@@H]2O[C@H](CO)[C@@H](O)[C@H](O)[C@H]2O[C@H]2C[C@](C)(N)[C@H](O)[C@H](C)O2)Oc2ccc(cc2Cl)[C@H]1O` [Vancomycin, reference compound], the MIC with E. faecalis (ATCC 51299 / VRE, E. faecalis ATCC 51299 (VRE)) was determined as 4 mg/L; with E. faecalis (E. faecalis 1), 0.12 mg/L; with E. faecalis (E. faecalis 7), 0.5 mg/L; in test [1] (setting [3]), 0.5 mg/L (≈ 0.345 µM); in test [1] (Staphylococcus aureus) it was 0.5 mg/L (≈ 0.345 µM); in the test on E. faecium it was 0.5 mg/L.
With `CO[C@@H]1[C@@H](OC(N)=O)[C@@H](O)[C@H](Oc2ccc3c(O)c(NC(=O)c4ccc(O)c(CC=C(C)C)c4)c(=O)oc3c2C)OC1(C)C` [Novobiocin], the MIC in test [1] (setting [3]) and in test [1] (Staphylococcus aureus) was 0.25 mg/L (≈ 0.408 µM) throughout.
